Measurements reported in US20190054093A1, “TREATMENT OF SARCOPENIA WITH ECDYSTEROIDS” (priority 2014, published 2019).
Read-outs that look alike come from different tables or passages of the source.

Tests used:
[1] = cited from earlier work; for effect on the sexual apparatus (ventral prostate weight, seminal vesicle weight): sexually immature intact rats
[2] = cited from earlier work
[3] = tested on: MCF7-AR1 cells; assay: A-Screen bioassay: androgen-dependent inhibition of E2-induced proliferation; assay type: cell-based; settings: Homo sapiens; in the presence of E2; read-out: IC50 of inhibition of cell proliferation
Experimental: In this example ATE and RCE were assessed for androgenic activity using the A-screeen assay. MCF7-AR1 is a human cancer-derived cell line which has been genetically engineered to overexpress the androgenic receptor (AR). […] This assay measures androgen-dependent inhibition of proliferation of the androgen receptor (AR)-positive human mammary carcinoma cell line, MCF7-AR1. This cell line has been stably transfected with a full human AR and expresses approximately five times more AR than wild-type cells. MCF7-AR1 cells retain the capacity to proliferate in response to estrogen treatment (E2). Androgens inhibit estrogen-induced proliferation and cells arrest in G0/G1 phase in a dose-dependent manner.
The A-Screen bioassay compares the cell number of similar inocula of MCF-7-AR1 cells growing in media in the absence of any estrogen and androgens (C−, negative control), in the presence of E2 (C+, estrogen control) and in the presence of E2 in combination with different concentrations of the suspected androgen (FIG. 11). Androgenic activity of a test compound results in the inhibition of cell proliferation compared to the E2 control.

[4] = tested on: polyribosomes from the livers of mice; settings: cited from earlier work
[5] = tested on: protein synthesis in mouse liver; settings: actinomycin D 2 mg/kg 30 minutes before the test substance; cited from earlier work
[6] = tested on: C2C12 myotubes; assay: Protein synthesis by radio-labeled leucine incorporation in C2C12 myotubes (Example 3); assay type: cell-based, mouse
[7] = tested on: Caspase-3 expression in C2C12 myotubes; assay: Caspase 3 expression in C2C12 myotubes (quantitative RT-PCR, Example 4); assay type: cell-based, mouse; settings: 24 hours; extracts and turkesterone 0.002, 0.02 and 2 ppm, 20HE 0.001, 0.01 and 1 ppm
Experimental: Experiments similar to those in example 1 have been carried out with two other plant-derived, ecdysteroid-rich extracts. […] Cells between passages 3 and 10 were seeded at a density of 10,000 cells per cm^2. Cells were grown for 48 h until they reached 80-90% confluence. […] Cells were maintained at 37° C. in a humidified 5% CO2 incubator and medium was changed every other day.
For RNA and protein extraction C2C12 myotubes were incubated with 0.002, 0.02 and 2 ppm of Rhaponticum carthamoides extract (RCE) and Cyanotis arachnoidea extract (CAE) or 0.001, 0.01 and 1 ppm of 20-hydroxyecdysone or 0.002, 0.02 and 2 ppm of Turkesterone for 24 hours. These two latter served as positive controls. RNA and protein were extracted using All Prep RNA/Protein Kit (Qiagen, Spain). RNA was stored at −80° C. and protein at −20° C. until further use. Total RNA was quantified using a fluorometric method with Quant-iT kit (Invitrogen, Spain). The cDNA was reverse-transcribed from the RNA extract using RT^2First Stand cDNA kit (Qiagen, Spain). Quantitative real-time RT-PCR for Caspase-3 and Myostatin were carried out using a MX3005P Q-PCR System (Agilent Technologies) and SYBR-Green/ROX detection. The housekeeping gene used was Actb and Mouse XpressRef Universal total RNA (Qiagen, Spain) as a positive control. […] The fold change in gene expression was calculated with ΔΔCt Method.

[8] = tested on: myostatin (Mstn) gene expression in C2C12 muscle cells; assay: Myostatin gene expression in C2C12 myotubes (RT2 Profiler PCR Array, Example 1); assay type: cell-based, mouse; settings: 20 ppm ATE or 1 μM methandrostenolone, 6 h
Experimental: (§1) The effect of Ajuga turkestanica extract (ATE) standardized to Turkesterone content was studied in muscle cells. […] Cells between passages 3 and 10 were seeded at a density of 10,000 cells per cm^2. Cells were grown for 48 h until they reached 80-90% confluence. […] Cells were maintained at 37° C. in a humidified 5% CO2 incubator and medium was changed every other day.
(§2) For RNA extraction, C2C12 cells were plated and differentiated to myotubes into 12-wells plates. […] RNA was then extracted using an All Prep RNA/Protein Kit (Qiagen, Spain). Total RNA was quantified using a fluorometric method with Quant-iT kit (Invitrogen, Spain). RNA was stored at −80° C. until further use. cDNA was reverse-transcribed from the RNA extract using RT^2 First Stand cDNA kit and we used a RT^2 Profiler PCR Array to analyze a panel of 84 genes involved in skeletal muscle development and disease (Qiagen, Spain). Quantitative real-time RT-PCR was carried out using a SYBR-Green/ROX detection in a MX3005P Q-PCR System. Samples were heated at 95° C. for 10 min, followed by a second stage composed of 15 sec at 95° C., 1 min at 60° C. which was repeated 40 times and third stage for dissociation curve composed of 1 min at 95° C., 30 sec at 55° C. and 30 sec at 95° C. The PCR-array data was analyzed by calculating relative gene expression and statistical significance through the use of known methods.

[9] = tested on: Caspase-3 (Casp3) gene expression in C2C12 muscle cells; assay: Caspase-3 gene expression in C2C12 myotubes (RT2 Profiler PCR Array, Example 1); assay type: cell-based, mouse; settings: 20 ppm ATE or 1 μM methandrostenolone, 6 h
Experimental: as §1, §2

[10] = castrated sexually immature rats
[11] = sexually mature male rats, 0.5 mg per 100 g intragastrically daily for 10 days
[12] = sexually immature intact rats, 0.5 mg per 100 g intragastrically daily for 10 days

Row | Molecule | weight of the ventral prostate and seminal vesicles [1, 10] | effect on the sexual apparatus (ventral prostate weight, seminal vesicle weight) [1] | weight of the ventral prostate and seminal vesicles [1, 11] | ratio of test to control (weight gain) [2, 10] | weight gain [2, 12] | ratio of test to control (weight gain) ([2]; sexually immature intact rats) | total protein content of organs ([2]; sexually immature intact rats) | IC50 [3] [nM] | effect of actinomycin D on the stimulation of liver protein synthesis [5] | other results
1 | turkesterone tetraacetate | did not change | pronounced effect | did not change significantly | 1.9 | 37.2 mg per 1 g initial weight per day | 2.5 | statistically significant increase | – | – | heart weight and weight of the anterior tibial muscle [2, 11]: statistically significant increase
2 | C[C@]1(O)CC[C@H]2[C@@H]3CCC4=CC(=O)CCC4=C3C=C[C@@]21C [Example R1881, methyltrienolone] | – | – | – | – | – | – | – | 0.02 | – | –
3 | C[C@]12C=CC(=O)C=C1CC[C@@H]1[C@@H]2CC[C@@]2(C)[C@H]1CC[C@]2(C)O [Nerobol] | – | – | – | – | – | – | – | – | almost totally removed the effect | increase of protein synthesis in the system of polyribosomes and cellular fluid from livers of treated animals ([4]; mice, Nerobol 1.0 mg/100 g, P<0.001): 14%
4 | CC(C)(O)CC[C@@H](O)[C@](C)(O)[C@H]1CC[C@@]2(O)C3=CC(=O)[C@@H]4C[C@@H](O)[C@@H](O)C[C@]4(C)[C@H]3[C@H](O)C[C@]12C [turkesterone] | did not change | pronounced effect | did not change significantly | 1.8 | 38 mg per 1 g initial weight per day | 2.6 | statistically significant increase | – | no noticeable effect | body weight gain [2, 11]: 9.7 mg per 1 g weight per day; body weight gain relative to control [2, 11]: 2 times; ratio of translating to nontranslating ribosomes ([4]; mouse liver, control group 3.98): 3.80; protein synthesis, % of control ([6]; 40 nM): 110 % of control; protein synthesis, % of control (peak effect) ([6]; 0.1 μM): 120 % of control; regulation of Caspase 3 expression [7]: significant effect in down regulation
5 | C[C@]12C=CC(=O)C=C1CC[C@@H]1[C@@H]2CC[C@@]2(C)[C@H]1CC[C@]2(C)O [methandrostenolone] | – | – | – | – | – | – | – | 0.35 | – | down-regulation of Myostatin [8]: < 2 fold; down-regulation of caspase-3 [9]: < 2 fold; effect on protein synthesis ([6]; concentrations up to 10 μM): no significant effect
